Assay in all cases: NCI anticancer screen, dose series, 48 h
For assay [1], the system named is SK-MEL-5 melanoma.
For assay [2], the system named is T-47D breast.
Assay [3] has as its system OVCAR-8 ovarian.
Assay [4] has as its system OVCAR-5 ovarian.
Assay [5] has as its system SNB-19 CNS.
Assay [6] deals with KM12 colon.
Assay [7] has as its system SK-MEL-28 melanoma.
Assay [8] deals with NCI-H23 lung.
Assay [9] deals with ACHN renal.
Assay [10] deals with M14 melanoma.
In assay [11] the test system is SF-539 CNS.
For assay [12], the system named is HCT-15 colon.
Assay [13] deals with 786-0 renal.
The subject of assay [14] is OVCAR-3 ovarian.
The subject of assay [15] is SK-OV-3 ovarian.
Assay [16] relates to CCRF-CEM leukemia.
Assay [17] has as its system NCI-H522 lung.
Assay [18] deals with SF-268 CNS.
Assay [19] relates to HOP-92 NSCLC.

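Grown in 96-well plates, cells were treated for 48 hours with each compound at five concentrations. Insufficient inhibition: endpoint recorded as highest concentration tested. At the TGI there is no net growth.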

As to `Oc1c(Cl)ccc2cccnc12`, the TGI in assay [1] is over 100 µM; in [2] it was 25.8 µM; in [3] it was over 100 µM; in [4], over 100 µM; in assay [5], over 100 µM; in assay [6], over 100 µM. For the same compound, the TGI is over 100 µM in assay [7]; over 100 µM in assay [8]; 35.8 µM in assay [9]; over 100 µM in assay [10]; 34.7 µM in [11]; over 100 µM in assay [12]. Besides, the TGI in assay [13] is 51.4 µM; in assay [14], over 100 µM; in assay [15], over 100 µM; in [16] it was 2.4 µM; in assay [17], 7.78 µM; in assay [18], over 100 µM.
Regarding `CCN(CC)CCC(=O)c1ccc(Oc2ccc(C)cc2)cc1`, the TGI is 40.2 µM in assay [2]; 39.4 µM in assay [3]; 41 µM in assay [4]; 33.3 µM in assay [5]; 23.9 µM in [6]; 30.5 µM in [7]. For the same compound, the TGI in assay [8] was 34.8 µM; in assay [9] it was 38.1 µM; in assay [10] it was 31.9 µM; in [11] it was 33.1 µM; in assay [12] it was 33.8 µM; in assay [13], 30.1 µM. The TGI in assay [14] was 32.4 µM; in assay [15], 88.7 µM; in assay [16] it was 89.7 µM; in [19], 39.3 µM; in [18], 33.8 µM.
With `CN(C)S(=O)(=O)n1ccnc1`, the TGI in assay [1], in assay [2], in assay [4], in assay [5], in assay [6] and in assay [7] was over 100 µM each time. For the same compound, the TGI in [8], in assay [9], in [10], in assay [11], in [12] and in [13] was over 100 µM throughout. Further, the TGI in assay [14], in [15], in [17], in assay [19] and in [18] was over 100 µM each time.
In the case of `O=C(O)C(F)(OC(F)(F)C(F)(F)C(F)(F)F)C(F)(F)F` (configuration not stated), the TGI in assay [1], in assay [2], in assay [3], in assay [4], in assay [5] and in [6] was over 100 µM throughout. The TGI in assay [7], in assay [8], in [9], in [10], in assay [11] and in [12] was over 100 µM throughout. Moreover, the TGI in assay [13], in [14], in [15], in [17], in assay [19] and in [18] was over 100 µM each time.
For the compound `C[C@@]12C[C@@H](c3ccccc3O1)N1CCSC1=N2`, the TGI in [1], in assay [2], in [3], in [4], in assay [5] and in assay [6] was over 100 µM in each case. Moreover, the TGI in [7], in assay [8], in assay [9], in [10], in assay [11] and in assay [12] was over 100 µM each time. Besides, the TGI in assay [13], in assay [14], in assay [15], in [17], in assay [19] and in assay [18] was over 100 µM each time.
As to `CCOC(=O)c1c(NS(=O)(=O)c2ccc(Br)cc2)sc2c1CCCC2`, the TGI was 18.2 µM in [1]; 14.5 µM in assay [2]; 15.3 µM in assay [3]; 18.3 µM in assay [4]; 20.6 µM in assay [5]; 18.2 µM in assay [6]. Moreover, the TGI in [7] came to 32.6 µM; in assay [8], 18.7 µM; in [9] it was 14.6 µM; in assay [10], 9.92 µM; in [11] it was 19.8 µM; in assay [12], 19 µM. For the same compound, the TGI is 29.4 µM in assay [13]; 9.9 µM in [14]; 50 µM in assay [15]; over 100 µM in assay [16]; 16.2 µM in assay [17]; 10.9 µM in assay [18].
For `Nc1sccc1S(=O)(=O)c1ccsc1N`, the TGI in assay [1], in assay [2], in [3], in assay [4], in [5] and in [6] was over 100 µM in each case. Also, the TGI in assay [7], in [8], in [9], in assay [10], in assay [11] and in assay [12] was over 100 µM throughout. Further, the TGI in [13], in [14], in assay [15], in [17], in assay [19] and in assay [18] was over 100 µM in each case.
As to `Cc1cc2c(cc1Cl)SC(NN(C)C)=NS2(=O)=O`, the TGI in assay [1], in [2], in assay [3], in assay [4], in assay [5] and in [6] was over 10 µM in each case. For the same compound, the TGI in assay [7], in assay [8], in assay [9], in assay [10], in assay [11] and in assay [12] was over 10 µM each time. In addition, the TGI in assay [13], in [14], in [15], in assay [16], in [17] and in assay [18] was over 10 µM each time.

Source of the values: PubChem BioAssay (NCI).
